Laboratory results from ChEMBL document CHEMBL4765340, “Novel potent antiplatelet thrombotic agent derived from biguanide for ischemic stroke” (Eur J Med Chem, 2020).
Calls of active or inactive are those of the source. The calls are words filed in the database; no cut-off is given here.

Key:
[1] = Toxicity in C57BL/6J mouse assessed as change in creatinine level at 200 mg/kg twice daily for 60 days relative to control; format: organism-based; conditions: in vivo, 1440 h, time 60 day
[2] = Toxicity against C57BL/6J mouse assessed as heart morphology at 200 mg/kg twice a day measured after 60 days; format: organism-based; conditions: in vivo, 1440 h, time 60 day
[3] = Suppression of glycoprotein IIb/IIIa activation in thrombin-stimulated human platelets by measuring activated GPIIb/IIIa at 1 mM measured after 3 hrs by PAC-1-FITC dye based flow cytometry (reference value: 90.1%); format: functional; conditions: Platelet
[4] = Toxicity in C57BL/6J mouse assessed as change in calcium level at 200 mg/kg twice daily for 60 days relative to control; format: organism-based; conditions: in vivo, 1440 h, time 60 day
[5] = Toxicity against C57BL/6J mouse assessed as effect on blood lactic acid at 200 mg/kg twice a day measured after 60 days; format: organism-based; conditions: in vivo, 1440 h, time 60 day
[6] = test system: Mus musculus; assay: Antithrombotic activity in calcein-labelled platelet-mediated ferric chloride-induced arterial injury thrombosis C57BL/6J mouse model assessed as average time to occlusive thrombosis at 50 mg/kg, po administrated twice a day measured upto 7 days (reference value: 7.9 +/- 0.7 min); format: functional; conditions: time day <=7
[7] = Toxicity in calcein-labelled platelet-mediated ferric chloride-induced arterial injury thrombosis po dosed C57BL/6J mouse model assessed as change in coagulation factor V treated twice a day measured upto 7 days; format: organism-based; conditions: in vivo, 168 h, time <=7 day
[8] = Inhibition of thrombin-stimulated human platelet aggregation by measuring aggregation at 0.05 mM measured after 3 hrs by scanning electron microscopy (Rvb= 87.2 +/- 4.0%); format: functional; set-up: scale not given: the % may be the effect or the level left
[9] = Inhibition of thrombin-induced platelet aggregation in mouse platelet isolated from C57BL/6J mouse treated at 200 mg/kg, ig twice a day for 7 days by lumi-aggregometer; format: functional; conditions: po, 168 h, time 7 day
[10] = Toxicity in calcein-labelled platelet-mediated ferric chloride-induced arterial injury thrombosis po dosed C57BL/6J mouse model assessed as change in coagulation factor II treated twice a day measured upto 7 days; format: organism-based; conditions: in vivo, 50 mg/kg, 168 h, time <=7 day
[11] = test system: Mus musculus; assay: Antithrombotic activity in calcein-labelled platelet-mediated ferric chloride-induced arterial injury thrombosis C57BL/6J mouse model assessed as average time to occlusive thrombosis at 100 mg/kg, po administrated twice a day measured upto 7 days (reference value: 7.9 +/- 0.7 min); format: functional; conditions: time day <=7
[12] = test system: Mus musculus; assay: Antithrombotic activity in calcein-labelled platelet-mediated ferric chloride-induced arterial injury thrombosis C57BL/6J mouse model assessed as thrombus weight at 200 mg/kg, po administrated twice a day measured upto 7 days (reference value: 3.3 +/- 0.3 mg); format: functional; conditions: time day <=7
[13] = Toxicity in C57BL/6J mouse assessed as change in mean platelet volume at 200 mg/kg twice daily for 60 days relative to control; format: organism-based; conditions: in vivo, 1440 h, time 60 day
[14] = Toxicity in calcein-labelled platelet-mediated ferric chloride-induced arterial injury thrombosis po dosed C57BL/6J mouse model assessed as change in prothrombin time treated twice a day measured upto 7 days; format: organism-based; conditions: in vivo, 168 h, time <=7 day
[15] = test system: Platelet; assay: Antiplatelet activity in human platelet on collagen-coated surface assessed as shear rate pre-incubated at 0.5 mM measured after 3 hrs by fluorescent microscopy (reference value: 100 =/- 7%); format: functional
[16] = test system: Platelet; assay: Cytotoxicity against human platelet assessed as extracellular LDH levels changes at 1 mM incubated for 6 hrs; format: cell-based; conditions: 1000 µM
[17] = Toxicity in C57BL/6J mouse assessed as change in platelet distribution width at 200 mg/kg twice daily for 60 days relative to control; format: organism-based; conditions: in vivo, 1440 h, time 60 day
[18] = Toxicity in C57BL/6J mouse assessed as change in potassium level at 200 mg/kg twice daily for 60 days relative to control; format: organism-based; conditions: in vivo, 1440 h, time 60 day
[19] = Toxicity in calcein-labelled platelet-mediated ferric chloride-induced arterial injury thrombosis po dosed C57BL/6J mouse model assessed as change in activated partial thromboplastin time treated twice a day measured upto 7 days; format: organism-based; conditions: in vivo, 168 h, time <=7 day
[20] = Toxicity against diabetic C57BL/6J mouse assessed hypoglycemic activity at 200 mg/kg twice a day measured after 60 days relative to parent compound; format: organism-based; conditions: in vivo, 1440 h, time 60 day
[21] = Toxicity in C57BL/6J mouse assessed as change in glucose level at 200 mg/kg twice daily for 60 days relative to control; format: organism-based; conditions: in vivo, 1440 h, time 60 day
[22] = Apparent clearance during terminal phase in Sprague-Dawley rat at 200 mg/kg, po measured by HPLC-MS/MS analysis; format: ADME, organism-based; conditions: in vivo
[23] = test system: Mus musculus; assay: Antithrombotic activity in transient focal cerebral ischemic mouse model occlusion induced 60 mins of the right middle cerebral artery followed by reperfussion 23 hrs assessed as reduction of neurological deficits at 200 mg/kg, po twice daily for 7 days […]; format: functional, organism-based; conditions: time 7.0 day
[24] = Suppression of glycoprotein IIb/IIIa activation in thrombin-stimulated human platelets by measuring activated GPIIb/IIIa at 0.50 mM measured after 3 hrs by PAC-1-FITC dye based flow cytometry (reference value: 90.1%); format: functional; conditions: Platelet, at 0.5 mM
[25] = Inhibition of thrombin-stimulated human platelet aggregation by measuring aggregation at 0.50 mM measured after 2 hrs by scanning electron microscopy; format: functional; set-up: scale not given: the % may be the effect or the level left; conditions: dose 0.5 mM
[26] = Suppression of P-selectin expression in thrombin-stimulated human platelets by measuring CD62P positive platelets at 0.01 mM after 3 hrs by flow cytometry analysis (reference value: 78.2%); format: functional; conditions: Platelet
[27] = test system: Mus musculus; assay: Antithrombotic activity in calcein-labelled platelet-mediated ferric chloride-induced arterial injury thrombosis C57BL/6J mouse model assessed as thrombus weight at 50 mg/kg, po administrated twice a day measured upto 7 days (reference value: 3.3 +/- 0.3 mg); format: functional; conditions: time day <=7
[28] = test system: Mus musculus; assay: Antithrombotic activity in calcein-labelled platelet-mediated ferric chloride-induced arterial injury thrombosis C57BL/6J mouse model assessed as thrombus weight at 100 mg/kg, po administrated twice a day measured upto 7 days (reference value: 3.3 +/- 0.3 mg); format: functional; conditions: time day <=7
[29] = test system: Mus musculus; assay: Antithrombotic activity in transient focal cerebral ischemic mouse model occlusion induced 60 mins of the right middle cerebral artery followed by reperfussion 23 hrs assessed as improve in damaged neural function at 200 mg/kg, po twice daily for 7 days; format: functional, organism-based; conditions: time 7.0 day
[30] = Toxicity in calcein-labelled platelet-mediated ferric chloride-induced arterial injury thrombosis po dosed C57BL/6J mouse model assessed as change in fibrinogen treated twice a day measured upto 7 days; format: organism-based; conditions: in vivo, 168 h, time <=7 day
[31] = AUC (0 to infinity) in Sprague-Dawley rat at 200 mg/kg, po measured by HPLC-MS/MS analysis; format: ADME, organism-based; set-up: time infinity, route oral, dose 200 mg/kg; conditions: in vivo
[32] = Cmax in Sprague-Dawley rat at 200 mg/kg, po compound dissolved in DMSO measured after 2 hr by HPLC-MS/MS analysis; format: ADME, organism-based; set-up: route oral, time 2 hrs, dose 200 mg/kg; conditions: in vivo
[33] = test system: Mus musculus; assay: Antithrombotic activity in calcein-labelled platelet-mediated ferric chloride-induced arterial injury thrombosis C57BL/6J mouse model assessed as average time to occlusive thrombosis at 300 mg/kg, po administrated twice a day measured upto 7 days (reference value: 7.9 +/- 0.7 min); format: functional; conditions: time day <=7
[34] = Toxicity in C57BL/6J mouse assessed as change in blood urea nitrogen level at 200 mg/kg twice daily for 60 days relative to control; format: organism-based; conditions: in vivo, 1440 h, time 60 day
[35] = Suppression of glycoprotein IIb/IIIa activation in thrombin-stimulated human platelets by measuring activated GPIIb/IIIa at 0.05 mM measured after 3 hrs by PAC-1-FITC dye based flow cytometry (reference value: 90.1%); format: functional; conditions: Platelet

SMILES: CN(C)C(=N)NC(=N)NS(=O)(=O)C(F)(F)F
- Activity [1]: Non-Toxic
- Activity [2]: Non-Toxic
- level, % of control at 1000 µM [3]: 37.2%
- Activity [4]: Non-Toxic
- Activity [5]: Non-Toxic
- Time [6]: 10.1 min
- Activity [7]: Non-Toxic
- Activity [8]: 62.2%
- inhibition in vivo at 200 mg/kg [9]: 71.5%
- Activity [10]: Non-Toxic
- Time [11]: 15.1 min
- Activity [12]: 0.4 mg
- Activity [13]: Non-Toxic
- Activity [14]: Non-Toxic
- Activity [15]: 37%
- Activity [16]: Non-Toxic
- Activity [17]: Non-Toxic
- Activity [18]: Non-Toxic
- Activity [19]: Non-Toxic
- Activity [20]: Non-Toxic
- Activity [21]: Non-Toxic
- CLz/F [22]: 16.6 mL/min/kg
- Activity [23]: Active
- level, % of control at 500 µM [24]: 37.5%
- Activity [25]: 35%
- level, % of control at 10 µM [26]: 72.8%
- Activity [27]: 2.7 mg
- Activity [28]: 1.1 mg
- Activity [29]: Active
- Activity [30]: Non-Toxic
- AUC(0-inf) [31]: 201 µg·h/mL
- Cmax [32]: 24300 ng/mL
- Time [33]: 22.1 min
- Activity [34]: Non-Toxic
- level, % of control at 50 µM [35]: 74.3%
